Assay results as given in ChEMBL document CHEMBL4834480, “Discovery of 3,5-Dimethyl-4-Sulfonyl-1H-Pyrrole-Based Myeloid Cell Leukemia 1 Inhibitors with High Affinity, Selectivity, and Oral Bioavailability” (J Med Chem, 2021).
Values after ≈ are worked out from the molar mass of the structure shown. Active and inactive are the calls of the source. The rule behind the calls is not given here.

Legend:
[1] = Toxicity in BALB/c nude mouse xenografted with human MV4-11 cells assessed as effect on kidney at 20 mg/kg, ip administered every two days for 14 days by hematoxyin-eosin staining based analysis; format: organism-based; conditions: in vivo, 336 h, time 14 day
[2] = Toxicity in BALB/c nude mouse xenografted with human MV4-11 cells assessed as effect on kidney weight at 60 mg/kg, po administered every two days for 14 days; format: organism-based; conditions: in vivo, 336 h, time 14 day
[3] = Intrinsic clearance in rat liver microsomes; format: ADME, Microsome; conditions: read-out: CLH
CYP2D6 = CYP2D6 (Homo sapiens, UniProt P10635); experiment: Inhibition of CYP2D6 (unknown origin) at 10 uM preincubated for 5 min followed by NADPH addition and measured after 20 mins by LC-MS/MS analysis relative to control; format: ADME; conditions: time 25 min
[4] = AUCt in Sprague-Dawley rat at 3 mg/kg, iv measured up to 24 hrs by LC-MS/MS analysis; format: ADME, organism-based; parameters: route intravenous, dose 3 mg/kg, time <=24; conditions: in vivo
CYP2C19 = CYP2C19 (Homo sapiens, UniProt P33261); experiment: Inhibition of CYP2C19 (unknown origin) at 10 uM preincubated for 5 min followed by NADPH addition and measured after 20 mins by LC-MS/MS analysis relative to control; format: ADME; conditions: time 25 min
[5] = Toxicity in BALB/c nude mouse xenografted with human MV4-11 cells assessed as effect on heart weight at 20 mg/kg, ip administered every two days for 14 days; format: organism-based; conditions: in vivo, 336 h, time 14 day
[6] = Toxicity in BALB/c nude mouse xenografted with human MV4-11 cells assessed as effect on kidney weight at 20 mg/kg, ip administered every two days for 14 days; format: organism-based; conditions: in vivo, 336 h, time 14 day
[7] = Clearance in Sprague-Dawley rat at 10 mg/kg, po measured up to 24 hrs by LC-MS/MS analysis; format: ADME, organism-based; conditions: in vivo
Bcl-2-like protein 2 = biological target: T1, Bcl-2-like protein 2 (Homo sapiens, UniProt Q92843); experiment: Binding affinity to human partial length BCLW (M1 to R171 residues) expressed in bacterial expression system by BCL2SCAN assay
T1 sequence (Q92843 whole entry): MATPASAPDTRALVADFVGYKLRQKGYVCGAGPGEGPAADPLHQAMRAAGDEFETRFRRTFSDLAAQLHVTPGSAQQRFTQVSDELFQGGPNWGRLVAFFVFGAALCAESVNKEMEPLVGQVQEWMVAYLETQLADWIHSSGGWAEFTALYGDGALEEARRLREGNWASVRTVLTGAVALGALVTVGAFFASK

Homo sapiens = organism: Homo sapiens; experiment: Selectivity ratio of Kd for human partial length BCL2 (M1 to D211 residues) expressed in bacterial expression system to Kd for human partial length MCL1 ([…] to R329 residues) expressed in bacterial expression system
CYP1A2 = biological target: T2, CYP1A2 (Homo sapiens, UniProt P05177); experiment: Inhibition of CYP1A2 (unknown origin) at 10 uM preincubated for 5 min followed by NADPH addition and measured after 20 mins by LC-MS/MS analysis relative to control; format: ADME; conditions: time 25 min
T2 sequence (P05177 whole entry): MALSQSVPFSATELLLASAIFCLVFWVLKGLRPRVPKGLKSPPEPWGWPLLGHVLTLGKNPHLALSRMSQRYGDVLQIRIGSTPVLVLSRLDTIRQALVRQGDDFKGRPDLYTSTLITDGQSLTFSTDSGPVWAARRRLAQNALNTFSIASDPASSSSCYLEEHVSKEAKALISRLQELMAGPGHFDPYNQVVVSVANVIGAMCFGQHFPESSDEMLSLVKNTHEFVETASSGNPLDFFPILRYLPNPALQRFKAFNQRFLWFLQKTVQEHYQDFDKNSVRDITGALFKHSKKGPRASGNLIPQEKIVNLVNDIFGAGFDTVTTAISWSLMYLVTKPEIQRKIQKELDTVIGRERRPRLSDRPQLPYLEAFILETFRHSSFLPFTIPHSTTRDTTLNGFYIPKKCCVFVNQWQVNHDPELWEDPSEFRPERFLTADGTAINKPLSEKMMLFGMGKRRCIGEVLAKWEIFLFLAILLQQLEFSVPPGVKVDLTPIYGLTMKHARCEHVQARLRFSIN

K562 = experiment: Induction of apoptosis in human K562 cells assessed as activation of caspase 3 up to 5 uM after 4 hrs by luminescence based microplate reader assay; format: functional, cell-based; conditions: dose microM <=5, time 4.0 hrs
[8] = Water solubility of the compound; format: physicochemical
MV4-11 [9] = experiment: Antitumor activity against human MV4-11 cells xenografted in BALB/c nude mouse assessed as induction of tumor necrosis at 60 mg/kg, po administered every two days for 14 days by hematoxyin-eosin staining based analysis; format: functional, organism-based; conditions: time 14.0 day
CYP3A4 = CYP3A4 (Homo sapiens, UniProt P08684); experiment: Inhibition of CYP3A4 (unknown origin) at 10 uM preincubated for 5 min followed by NADPH addition and measured after 20 mins by LC-MS/MS analysis relative to control; format: ADME; conditions: time 25 min
[10] = AUCt in Sprague-Dawley rat at 10 mg/kg, po measured up to 24 hrs by LC-MS/MS analysis; format: ADME, organism-based; parameters: route oral, dose 10 mg/kg, time <=24; conditions: in vivo
[11] = Half life in Sprague-Dawley rat at 10 mg/kg, po measured up to 24 hrs by LC-MS/MS analysis; format: ADME, organism-based; conditions: in vivo
MV4-11 [12] = experiment: Induction of apoptosis in human MV4-11 cells xenografted in BALB/c nude mouse assessed as induction of PARP cleavage at 20 mg/kg, ip administered every two days for 14 days by Western blot analysis; format: functional, organism-based; conditions: time 14.0 day
[13] = Half life in rat liver microsomes; format: ADME, Microsome
SK-BR-3 = experiment: Antiproliferative activity against human SK-BR-3 cells assessed as decrease in cell viability measured after 72 hrs by MTT assay; format: functional, cell-based; conditions: SK-BR-3, 72 h
[14] = Stability of the compound in mouse plasma assessed as parent compound remaining measured after 2 hrs by LC-MS/MS analysis; format: ADME, cell-free; conditions: read-out: Stabilty
NCI-H23 = experiment: Antiproliferative activity against human NCI-H23 cells assessed as decrease in cell viability measured after 72 hrs by MTT assay; format: functional, cell-based; conditions: NCI-H23, 72 h
[15] = Stability in human liver microsomes assessed as parent compound remaining preincubated for 5 mins followed by NADPH addition and measured after 30 mins by LC-MS/MS analysis; format: ADME, Microsome; conditions: time 35 min, read-out: Stabilty
NCI-H929 [16] = experiment: Induction of apoptosis in human NCI-H929 cells assessed as upregulation of cleaved PARP measured after 48 hrs by Western blot analysis; format: functional, cell-based; conditions: dose microM <=5, time 48.0 hrs
[17] = Tmax in Sprague-Dawley rat at 10 mg/kg, po measured up to 24 hrs by LC-MS/MS analysis; format: ADME, organism-based; conditions: in vivo
[18] = Intrinsic clearance in human liver microsomes; format: ADME, Microsome; conditions: read-out: CLH
CYP2C9 = CYP2C9 (Homo sapiens, UniProt P11712); experiment: Inhibition of CYP2C9 (unknown origin) at 10 uM preincubated for 5 min followed by NADPH addition and measured after 20 mins by LC-MS/MS analysis relative to control; format: ADME; conditions: time 25 min
[19] = Toxicity in BALB/c nude mouse xenografted with human MV4-11 cells assessed as effect on liver at 20 mg/kg, ip administered every two days for 14 days by hematoxyin-eosin staining based analysis; format: organism-based; conditions: in vivo, 336 h, time 14 day
NCI-H929 [20] = experiment: Induction of apoptosis in human NCI-H929 cells measured after 48 hrs by annexinV-FITC/propidium iodide staining based flow cytometry analysis; format: functional, cell-based; conditions: dose 1-5 µM

Sequence of CYP2C19 (P33261 whole entry): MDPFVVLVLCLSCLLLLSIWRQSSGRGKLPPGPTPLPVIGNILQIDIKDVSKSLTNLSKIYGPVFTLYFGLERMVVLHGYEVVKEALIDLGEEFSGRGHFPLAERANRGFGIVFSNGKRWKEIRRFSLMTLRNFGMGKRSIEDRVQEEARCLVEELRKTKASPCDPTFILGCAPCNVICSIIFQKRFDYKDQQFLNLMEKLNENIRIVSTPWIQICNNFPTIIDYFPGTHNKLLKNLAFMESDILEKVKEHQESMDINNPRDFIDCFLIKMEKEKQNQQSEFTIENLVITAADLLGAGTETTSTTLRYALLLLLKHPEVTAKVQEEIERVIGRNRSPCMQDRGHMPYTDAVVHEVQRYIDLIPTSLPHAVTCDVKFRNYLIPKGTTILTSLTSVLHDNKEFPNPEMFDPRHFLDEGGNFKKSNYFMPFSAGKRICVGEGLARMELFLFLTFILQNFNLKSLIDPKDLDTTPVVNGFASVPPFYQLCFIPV
Sequence of CYP2C9 (P11712 whole entry): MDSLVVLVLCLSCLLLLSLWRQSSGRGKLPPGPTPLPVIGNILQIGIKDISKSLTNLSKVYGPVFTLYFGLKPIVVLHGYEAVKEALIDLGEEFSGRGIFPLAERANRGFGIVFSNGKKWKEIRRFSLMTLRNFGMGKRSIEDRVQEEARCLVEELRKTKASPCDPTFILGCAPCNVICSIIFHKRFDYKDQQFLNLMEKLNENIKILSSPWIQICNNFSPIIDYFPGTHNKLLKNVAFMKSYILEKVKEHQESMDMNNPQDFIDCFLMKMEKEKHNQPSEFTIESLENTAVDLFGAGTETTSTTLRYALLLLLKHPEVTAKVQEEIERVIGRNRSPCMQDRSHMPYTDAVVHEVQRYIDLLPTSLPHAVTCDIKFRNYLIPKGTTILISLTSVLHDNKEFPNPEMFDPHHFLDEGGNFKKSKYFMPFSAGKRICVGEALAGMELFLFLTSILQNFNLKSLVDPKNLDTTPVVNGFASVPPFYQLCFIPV
Sequence of CYP2D6 (P10635 whole entry): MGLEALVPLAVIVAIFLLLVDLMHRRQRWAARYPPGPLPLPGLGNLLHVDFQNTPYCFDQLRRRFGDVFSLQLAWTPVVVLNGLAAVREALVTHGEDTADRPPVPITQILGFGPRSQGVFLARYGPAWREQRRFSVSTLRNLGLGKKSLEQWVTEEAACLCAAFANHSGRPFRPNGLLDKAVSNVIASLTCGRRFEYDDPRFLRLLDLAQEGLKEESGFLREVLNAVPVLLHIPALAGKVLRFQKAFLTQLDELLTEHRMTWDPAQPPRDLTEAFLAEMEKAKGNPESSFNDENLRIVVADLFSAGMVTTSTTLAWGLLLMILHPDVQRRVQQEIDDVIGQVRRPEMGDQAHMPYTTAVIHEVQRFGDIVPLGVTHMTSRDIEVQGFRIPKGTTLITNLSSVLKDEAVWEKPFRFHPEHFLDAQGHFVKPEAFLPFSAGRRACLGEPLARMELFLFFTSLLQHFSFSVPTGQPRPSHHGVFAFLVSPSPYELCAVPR
Sequence of CYP3A4 (P08684 whole entry): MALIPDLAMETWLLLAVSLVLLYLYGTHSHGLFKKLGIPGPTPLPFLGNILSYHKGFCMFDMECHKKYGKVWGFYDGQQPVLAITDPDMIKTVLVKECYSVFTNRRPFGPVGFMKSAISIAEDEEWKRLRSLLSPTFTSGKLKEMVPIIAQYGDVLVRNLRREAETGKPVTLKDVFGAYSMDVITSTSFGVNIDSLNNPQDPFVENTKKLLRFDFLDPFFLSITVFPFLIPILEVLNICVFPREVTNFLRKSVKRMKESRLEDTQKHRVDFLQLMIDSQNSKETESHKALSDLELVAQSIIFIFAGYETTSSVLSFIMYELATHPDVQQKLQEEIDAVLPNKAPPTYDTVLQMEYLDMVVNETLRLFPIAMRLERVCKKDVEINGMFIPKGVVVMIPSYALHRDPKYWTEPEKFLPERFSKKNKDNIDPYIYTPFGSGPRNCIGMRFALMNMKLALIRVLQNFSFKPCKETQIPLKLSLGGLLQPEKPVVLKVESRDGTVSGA

CC(=O)c1ccc(S(=O)(=O)c2c(C)c(C(=O)O)n(CCCOc3cc(C)c(Cl)c(C)c3)c2C)cc1
Activity [1]: Non-Toxic | Activity [2]: Non-Toxic | microsomal CLint [3]: 31.4 µL/min/mg | inhibition at 20 min, 10 µM (CYP2D6): 9.13% | AUC(0-t) at 24 h [4]: 3290 ng·h/mL | inhibition at 20 min, 10 µM (CYP2C19): 2.85% | Activity [5]: Non-Toxic | Activity [6]: Non-Toxic | CL/F [7]: 36.8 mL/min/kg | Kd (Bcl-2-like protein 2): > 10 µM | Selectivity ratio (Homo sapiens): > 40000 | inhibition at 20 min, 10 µM (CYP1A2): 19.3% | Activity (K562): inactive | solubility [8]: 32.3 µg/mL (≈ 62.4 µM) | Activity (MV4-11 [9]): Active | inhibition at 20 min, 10 µM (CYP3A4): 29.4% | AUC(0-t) at 24 h [10]: 4530 ng·h/mL | half-life [11]: 126 min | Activity (MV4-11 [12]): Active | half-life [13]: 45 min | IC50 (SK-BR-3): 2840 nM | remaining at 2 h [14]: 100% | IC50 (NCI-H23): 3.02 µM | remaining at 0.5 h [15]: 64% | Activity (NCI-H929 [16]): Dose-Dependent Effect | Tmax [17]: 30 min | microsomal CLint [18]: 67.5 µL/min/mg | inhibition at 20 min, 10 µM (CYP2C9): 26% | Activity [19]: Non-Toxic | Activity (NCI-H929 [20]): Dose-Dependent Effect
